Among the test systems are 786-0; A549; BT-549; CAKI-1; HL-60; K562; M14; MDA-N; NCI-H226; OVCAR-5; OVCAR-8; RXF 393; SF-268; SK-MEL-28; SK-OV-3; SNB-19; T47D; U-251; UACC-257.
Common to all, as to assay: inhibition of tumour cell growth, NCI panel, 48 h

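1) Cells in 96-well plates. 2) Compound, 48 h, 5 concentrations. 3) Linear interpolation between surrounding doses. 4) Unreached endpoint = highest concentration. Here, GI50 denotes the concentration required for 50% inhibition of growth.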 Activity calls are given as the source filed them. Rule as the data show it: active = GI50 up to about 1.1 µM and inactive = higher.

We go through four molecules from ChEMBL document CHEMBL1201862, “PubChem BioAssay data set” (2004).

As to `O=C(O)CC(CC(=O)O)C(=O)O` [TRICARBALLYLIC ACID], the GI50 in the experiment with 786-0, in the experiment on A549, with BT-549, in the experiment with CAKI-1, with HL-60 and with K562 was > 100 µM (inactive) in each case. Further, the GI50 in the experiment on M14, in the experiment on MDA-N, in the experiment on NCI-H226, in the experiment with OVCAR-5, in the experiment on OVCAR-8 and in the experiment with RXF 393 was > 100 µM (inactive) in each case. Further, the GI50 with SF-268, in the experiment with SK-MEL-28, in the experiment with SK-OV-3, in the experiment with SNB-19, with T47D and in the experiment on U-251 was > 100 µM (inactive) throughout. Moreover, the GI50 in the experiment on UACC-257 was > 100 µM (inactive).

As for `CC(C)OC(=O)c1ccc(NCc2cc(O)ccc2O)cc1Cl`, the GI50 is 2.09 µM (inactive) in the experiment with 786-0; 12 µM (inactive) in the experiment on A549; 0.327 µM (active) in the experiment on BT-549; 0.861 µM (active) in the experiment on CAKI-1; 0.364 µM (active) in the experiment with HL-60; 0.501 µM (active) in the experiment with K562. Moreover, the GI50 in the experiment on M14 is 7.13 µM (inactive); with MDA-N, 3.18 µM (inactive); in the experiment with NCI-H226 it was 8.22 µM (inactive); with OVCAR-5 it was 8.43 µM (inactive); in the experiment on OVCAR-8, 2.77 µM (inactive); in the experiment on RXF 393, 2.61 µM (inactive). For the same molecule, the GI50 with SF-268 was 13.1 µM (inactive); in the experiment on SK-MEL-28 it was 4.28 µM (inactive); in the experiment on SK-OV-3, 7.21 µM (inactive); with SNB-19, 2.64 µM (inactive); in the experiment with T47D it was 1.56 µM (inactive); in the experiment on U-251, 3.95 µM (inactive). In addition, the GI50 in the experiment on UACC-257 was 11.4 µM (inactive).

For the molecule `Clc1nc(Nc2nc3ccccc3[nH]2)nc(Cl)c1Cc1ccccc1`, the GI50 with 786-0 was 45.9 µM (inactive); with A549 it was > 100 µM (inactive); in the experiment with BT-549 it was > 100 µM (inactive); in the experiment on CAKI-1, > 100 µM (inactive); in the experiment on HL-60 it was > 100 µM (inactive); in the experiment on K562, > 100 µM (inactive). The GI50 in the experiment with M14 was > 100 µM (inactive); with MDA-N, 66.4 µM (inactive); with NCI-H226, > 100 µM (inactive); in the experiment with OVCAR-5 it was > 100 µM (inactive); in the experiment with OVCAR-8, > 100 µM (inactive); in the experiment on RXF 393 it was > 100 µM (inactive). Moreover, the GI50 is 49.4 µM (inactive) with SF-268; > 100 µM (inactive) in the experiment on SK-MEL-28; > 100 µM (inactive) in the experiment with SK-OV-3; 93.1 µM (inactive) with SNB-19; 89.3 µM (inactive) in the experiment with T47D; 29.6 µM (inactive) with U-251. Further, in the experiment on UACC-257, the GI50 is > 100 µM (inactive).

Regarding `COC(=O)c1ccc(NC(=O)O/N=C(\Cl)C(C)C)cc1`, the GI50 in the experiment on 786-0 was 2.03 µM (inactive); with A549, 19.5 µM (inactive); with BT-549 it was 2.67 µM (inactive); with CAKI-1 it was 1.69 µM (inactive); in the experiment with HL-60, 1.36 µM (inactive); in the experiment on K562, 1.3 µM (inactive). In addition, the GI50 in the experiment with M14 is 2.99 µM (inactive); in the experiment on MDA-N it was 8.89 µM (inactive); with NCI-H226, 18.9 µM (inactive); in the experiment on OVCAR-5, 17.1 µM (inactive); in the experiment on OVCAR-8 it was 14 µM (inactive); in the experiment on RXF 393 it was 6.21 µM (inactive). Besides, the GI50 was 26.2 µM (inactive) in the experiment on SF-268; 4.84 µM (inactive) with SK-MEL-28; 17.8 µM (inactive) in the experiment with SK-OV-3; 16.9 µM (inactive) in the experiment on SNB-19; 2 µM (inactive) in the experiment with T47D; 16.6 µM (inactive) in the experiment on U-251. For the same molecule, the GI50 in the experiment with UACC-257 was 15.2 µM (inactive).
